Like-named read-outs stand apart in the source and are kept apart here.
Assays:
[1] = long-term stability study, chemical purity by HPLC; format: physicochemical; conditions: up to 15 months, in words
Protocol: The physical and chemical stability study was performed on the compounds of Chemical Formula 2 and Chemical Formula 1 (for reference purposes). The long-term stability study was conducted at defined temperatures and relative humidity levels (25° C./60% relative humidity (RH) and 40° C./75% RH). At regular intervals, a solid sample was analyzed by XRPD, TGMS and HPLC.
The results of the chemical purity determination for the compounds of Chemical Formula 1 and Chemical Formula 2 after 1-, 3- and 15-month exposure to 25° C./60% RH and 40° C./75% RH is presented in FIGS. 4 and 5.

[2] = system: lung cancer cell line EBC-1; assay: cancer cell proliferation inhibitory experiment (SRB); format: cell-based, human; conditions: EBC-1 cell line
Protocol: The following exemplary experimental protocol was performed to test the activity of the maleate salt compounds described herein.
An RPMI 1640 cell culture medium, fetal bovine serum (FBS) and trypsin were purchased from GIBCO Co., Ltd. (Grand Island, N.Y.), and sodium hydrogencarbonate, amphotericin B and gentamycin were used as signamic medical products. In addition, reagents such as sulforhodamine (SRB) B, Trisma Base, and trichloroacetic acid (TCA), which were reagents used in a cytotoxicity measurement experiment, were purchased from Sigma Chemical Co., Ltd. For MTS analysis, a Celltiter 96 Aqueous Non-Radioactive Cell Proliferation Assay product was purchased from Promega Co., Ltd. Further, a T-25 culture container used for cell culture, a 96-well plate and other disposable glass used for cell culture were obtained from Folkon (Lincoln Park, N.J.) products.
A drug used in the experiment was diluted as an experimental medium to a desired concentration in the test, and the final dimethylsulfoxide concentration was 0.5% or less.
Cancer cell lines used in the experiment were human-derived cancer cell lines, and a lung cancer cell line EBC-1. RPMI 1640 medium with 10% fetal bovine serum (FBS) was used and cultured in an incubator of 37° C. and 5% CO2 and subcultured once by 3 to 4 days.
Specifically, after the culture with the compound of the present disclosure was terminated, the culture solution was removed, and a cold TCA solution added to each well. The cells were left at 4° C. for 1 hour to be fixed. The TCA solution was removed, and the cells were dried at room temperature, incubated with a solution obtained by dissolving 0.4% SRB in a 1% acetic acid solution, left at room temperature for 30 minutes, and then stained. Extra SRB which was not bound to the cells was washed with a 1% acetic acid solution, and the SRB was eluted by adding a […] tris buffer solution (trisma base; unbuffered) of pH 10.3 to 10.5 to the stained cells.

[3] = PK parameters in plasma after single administration; format: in vivo, Wistar rats; conditions: for AUC(0-inf) / AUC(0-t) / Cmax / Tmax: Wistar, rat, plasma
[4] = thermodynamic solubility in formulation vehicles (phosphate buffer pH 7.4 with excipients); format: physicochemical; conditions: thermodynamic from solid
Protocol: In view of developing a formulation suitable for parenteral administration, the quantitative solubility of Chemical Formula land the Chemical Formula 2 were determined in phosphate buffer pH 7.4, supplemented with solubility-enhancing excipients. The target concentration is 1-1.3 mg/mL.
Based on the qualitative solubility result determined for the PBS formulation vehicle containing Transcutol (Gattefossé, France) and TPGS (tocopherol polyethylene glycol succinate), the quantitative solubility of the compound of Chemical Formula 1 and the compound of Chemical Formula 2 was determined in those vehicles to assess the maximum solubility in those vehicles. The thermodynamic solubility was then determined in PBS buffer containing Transcutol (50% and 10%) and TPGS (20% and 10%) and also in the formulation vehicles containing PEG 400 (50%, with and without presence of 2% DMSO). Suspensions of the compound of Chemical Formula 1 and the compound of Chemical Formula 2 were prepared in the selected vehicles with a compound of Chemical Formula 1 concentration of about 3.5-5 mg/mL. After incubation for 24 hours at room temperature, the solids and liquid phases were separated. The concentration of API in solution was determined by HPLC analysis. The results can be found in FIG. 6.

[5] = PK parameters after bid (twice a day) administration; format: in vivo; conditions: for Cmax1 / Tmax1: after first daily dosing; for Cmax2 / Tmax2: after second daily dosing; for AUC / AUC(0-t): in vivo; for AUC: read-out: AUC(12-24 h)
Excerpt: FIG. 10 and Table 4 show the PK properties of the compound of Chemical Formula 2 administered twice a day (bid).
FIG. 11 and Table 5 show the PK properties of the compound of Chemical Formula 1 administered twice per day.

In the case of CN1CCN(Cc2ccc(-c3cnc(N4CCOC(Cn5nnc6ncc(-c7cnn(C)c7)nc65)C4)nc3)cc2)CC1 (stereo not drawn) [Chemical Formula 1], the chemical degradation ([1]; 25° C./60% RH) was “partial chemical degradation”, the chemical degradation ([1]; 40° C./75% RH) was “more degradation” and the GI50 [2] was 8.17 nM. The AUClast/Dose ([3]; 5 mg/kg IV) was 1410 kg·nM·h/mg, the “AUC∞/Dose” value ([3]; 5 mg/kg IV) was 1440 kg·nM·h/mg and the Cl ([3]; 5 mg/kg IV) was 0.000705 mg/h/nM/kg. It also gave a Vss ([3]; 5 mg/kg IV) of 0.00347 mg/nM/kg, a Vz ([3]; 5 mg/kg IV) of 0.00471 mg/nM/kg and an AUClast/Dose ([3]; 5 mg/kg PO) of 551 kg·nM·h/mg. The “AUC∞/Dose” value ([3]; 5 mg/kg PO) was 562 kg·nM·h/mg, the F ([3]; 5 mg/kg PO) was 39.0% and the AUClast/Dose ([3]; 20 mg/kg PO) was 488 kg·nM·h/mg. For the same molecule, the “AUC∞/Dose” value ([3]; 20 mg/kg PO) was 504 kg·nM·h/mg, the F ([3]; 20 mg/kg PO) was 35.0% and the AUC(0-inf) ([3]; 5 mg/kg IV) was 7.2 µM·h. It also gave an AUC(0-t) ([3]; 5 mg/kg IV) of 7.06 µM·h, an AUC(0-inf) ([3]; 5 mg/kg PO) of 2.81 µM·h and an AUC(0-t) ([3]; 5 mg/kg PO) of 2.75 µM·h. The Cmax ([3]; 5 mg/kg PO) was 0.343 µM, the Tmax ([3]; 5 mg/kg PO) was 4 h and the AUC(0-inf) ([3]; 20 mg/kg PO) was 10.1 µM·h. For the same molecule, the AUC(0-t) ([3]; 20 mg/kg PO) was 9.76 µM·h, the Cmax ([3]; 20 mg/kg PO) was 1.08 µM and the Tmax ([3]; 20 mg/kg PO) was 4 h. It also gave a solubility at 24 h ([4]; PBS formulation vehicle with 10% TPGS, pH 7.4, aqueous with cosolvent or surfactant or cyclodextrin, PBS vehicle containing 10% TPGS, 24 hours at room temperature) of at least 1 mg/mL, a solubility at 24 h ([4]; PBS formulation vehicle with 10% Transcutol, pH 7.4, aqueous with cosolvent or surfactant or cyclodextrin, PBS vehicle with only 10% Transcutol, 24 hours at room temperature) of about 0.1 mg/mL and a solubility at 24 h ([4]; PBS formulation vehicle with 20% TPGS, pH 7.4, aqueous with cosolvent or surfactant or cyclodextrin, PBS vehicle containing 20% TPGS, 24 hours at room temperature) of at least 1 mg/mL. For the same molecule, the solubility at 24 h ([4]; PBS formulation vehicle with 50% Transcutol, pH 7.4, aqueous with cosolvent or surfactant or cyclodextrin, PBS vehicle containing 50% Transcutol, 24 hours at room temperature) was at least 1 mg/mL, the solubility at 24 h ([4]; formulation vehicles containing PEG 400, pH 7.4, aqueous with cosolvent or surfactant or cyclodextrin, vehicles containing PEG 400, 24 hours at room temperature) was about 0.3 mg/mL and the “AUC(0-12 h)/Dose” value ([5]; 5 mg/kg IV (10 mg/kg/day)) was 1070 kg·nM·h/mg. The “AUC(12-24 h)/Dose” value ([5]; 5 mg/kg IV (10 mg/kg/day)) was 1480 kg·nM·h/mg, the AUClast/Dose ([5]; 5 mg/kg IV (10 mg/kg/day)) was 1410 kg·nM·h/mg and the Cl ([5]; 5 mg/kg IV (10 mg/kg/day)) was 0.000733 mg/h/nM/kg. For the same molecule, the Vss ([5]; 5 mg/kg IV (10 mg/kg/day)) was 0.0076 mg/nM/kg, the Vz ([5]; 5 mg/kg IV (10 mg/kg/day)) was 0.00265 mg/nM/kg and the “AUC(0-12 h)/Dose” value ([5]; 5 mg/kg PO (10 mg/kg/day)) was 487 kg·nM·h/mg. The “AUC(12-24 h)/Dose” value ([5]; 5 mg/kg PO (10 mg/kg/day)) was 490 kg·nM·h/mg, the AUClast/Dose ([5]; 5 mg/kg PO (10 mg/kg/day)) was 488 kg·nM·h/mg and the F ([5]; 5 mg/kg PO (10 mg/kg/day)) was 34.6%. The Cmax1 ([5]; 5 mg/kg PO (10 mg/kg/day)) was 0.564 µM, the Tmax1 ([5]; 5 mg/kg PO (10 mg/kg/day)) was 3-4$ h and the Cmax2 ([5]; 5 mg/kg PO (10 mg/kg/day)) was 0.488 µM. The Tmax2 ([5]; 5 mg/kg PO (10 mg/kg/day)) was 13-14$ h, the “AUC(0-12 h)/Dose” value ([5]; 20 mg/kg PO (40 mg/kg/day)) was 395 kg·nM·h/mg and the “AUC(12-24 h)/Dose” value ([5]; 20 mg/kg PO (40 mg/kg/day)) was 313 kg·nM·h/mg. It also gave an AUClast/Dose ([5]; 20 mg/kg PO (40 mg/kg/day)) of 318 kg·nM·h/mg, an F ([5]; 20 mg/kg PO (40 mg/kg/day)) of 22.6% and a Cmax1 ([5]; 20 mg/kg PO (40 mg/kg/day)) of 0.821 µM. The Tmax1 ([5]; 20 mg/kg PO (40 mg/kg/day)) was 1-3$ h, the Cmax2 ([5]; 20 mg/kg PO (40 mg/kg/day)) was 1 µM and the Tmax2 ([5]; 20 mg/kg PO (40 mg/kg/day)) was 12.083-16$ h. The AUC ([5]; 5 mg/kg IV (10 mg/kg/day)) was 7.38 µM·h, the AUC ([5]; 5 mg/kg PO (10 mg/kg/day)) was 2.45 µM·h and the AUC ([5]; 20 mg/kg PO (40 mg/kg/day)) was 6.26 µM·h. The AUC(0-t) ([5]; iv, 5 mg/kg, 5 mg/kg IV (10 mg/kg/day), read-out: AUC(0-12 h)) was 5.36 µM·h, the AUC(0-t) ([5]; iv, 5 mg/kg, 5 mg/kg IV (10 mg/kg/day), read-out: AUClast) was 14.1 µM·h and the AUC(0-t) ([5]; po, 5 mg/kg, 5 mg/kg PO (10 mg/kg/day), read-out: AUC(0-12 h)) was 2.44 µM·h. It also gave an AUC(0-t) ([5]; po, 5 mg/kg, 5 mg/kg PO (10 mg/kg/day), read-out: AUClast) of 4.88 µM·h, an AUC(0-t) ([5]; po, 20 mg/kg, 20 mg/kg PO (40 mg/kg/day), read-out: AUC(0-12 h)) of 7.9 µM·h and an AUC(0-t) ([5]; po, 20 mg/kg, 20 mg/kg PO (40 mg/kg/day), read-out: AUClast) of 12.7 µM·h.
